Values of other authors in patent US6838050B1, “Methods and devices for providing anti-infective activity to a medical device” (Oxibio, Inc., priority 1999, dated 2005).

Columns and labels:
[1] = test system: bacteria and viruses
[2] = human

SMILES: II [free iodine, elemental iodine]
- free iodine level at which effective microbial killing occurs [1]: not less than 0.1 ppm
- level in solution sufficient to kill bacteria and viruses [1]: A few parts per million
- upper daily threshold for total iodine exposure posing no significant health threat [2]: ≤ 1000 micrograms per day
- upper limit of solubility: ~320 ppm
